The record followed here is ChEMBL document CHEMBL3297666, “Antibacterial inhibitors of Gram-positive thymidylate kinase: structure-activity relationships and chiral preference of a new hydrophobic binding region” (J Med Chem, 2014).

For orientation: IC50 means the concentration that gives 50% inhibition. Usually MIC stands for the smallest concentration in the dilution series that meets the test's criterion for growth inhibition. For orientation: logD means the decadic logarithm of the distribution of all forms, ionised or not, between an organic phase and buffer at a given pH. A low value points to a more hydrophilic compound. Usually fraction unbound stands for the share of the substance not bound to proteins or other matrix. The low end stands for little free substance, the high end for much free substance. A word on the clearance: it is the volume of plasma or blood freed of the substance per unit of time. Low readings indicate inefficient removal, high ones efficient removal.

The nature of series [1]: Retention time of the compound by LC-MS method. It is filed as physicochemical.
Series [2] is described as follows: Inhibition of Staphylococcus aureus TMK assessed as decrease in ATP production using dTDP and ADP as substrate after 3.5 hrs by luciferin/luciferase based luminescence analysis.
Series [3] relates to Staphylococcus aureus. The experiment in a line: Antibacterial activity against methicillin-resistant and quinolone-resistant Staphylococcus aureus ARC 517 assessed as growth inhibition by broth microdilution method. It is filed as functional.
Series [4] is described as follows: Octanol-sodium phosphate buffer partition coefficient, log D of the compound at pH 7.4 by shake-flask method.
Series [5] concerns Staphylococcus aureus. Put plainly: Antibacterial activity against Staphylococcus aureus ARC 516 assessed as growth inhibition by broth microdilution method. The format is functional.
Series [6] can be described thus: Fraction unbound in human plasma at 10 uM after 5 hrs by rapid equilibrium dialysis method. It is filed as ADME, cell-free. On the technique in general: In equilibrium dialysis free small molecules cross a membrane that holds back macromolecules.
The nature of series [7]: In vivo clearance in Wistar rat at 5 to 10 mg/kg, iv administered as bolus dose. Further details: dose 5-10 mg/kg, route intravenous. It is filed as ADME, organism-based.
Series [8] is described as follows: Fraction unbound in mouse plasma at 10 uM after 5 hrs by rapid equilibrium dialysis method. It is filed as ADME, cell-free.

Each structure is given as a SMILES string.

Take `CCC(c1ccc(C(=O)O)c(Oc2cccc(Cl)c2)c1OC)N1CCC[C@H](n2cc(C)c(=O)[nH]c2=O)C1` (some centres undefined): in series [1], the Retention_time worked out at 2.29 min.

For `CCC[C@H](c1ccc(C(=O)O)c(Oc2cccc(Cl)c2)c1OC)N1CCC[C@H](n2cc(C)c(=O)[nH]c2=O)C1`, the half-maximal inhibitory concentration (IC50) in series [2] was found to be 30 nM. Also, the MIC in the series on Staphylococcus aureus [3] and in the series with Staphylococcus aureus [5] was more than 16 µg/mL each time. The compound also gave a logD in series [4] of 0.08. The Retention_time in series [1] turned out to be 2.18 min. Besides, the unbound share (fraction unbound) at 5 h, 10 µM in series [6] is 0.034.

Regarding `Cc1cn([C@H]2CCCN(Cc3cccc(Oc4cccc(Cl)c4)c3)C2)c(=O)[nH]c1=O`, the IC50 in series [2] is 1170 nM.

In the case of `CCC(O)c1ccc(Br)c(Oc2cccc(Cl)c2)c1OC` (centres undefined), the Retention_time in series [1] is reported as 3.27 min.

For `Cc1cn([C@H]2CCCN(Cc3ccc(C(=O)O)c(Oc4cccc(Cl)c4)c3F)C2)c(=O)[nH]c1=O`, the IC50 in series [2] stood at 12 nM. The minimum inhibitory concentration (MIC) with Staphylococcus aureus [3] is 16 µg/mL; in the series on Staphylococcus aureus [5], 32 µg/mL. In series [4], this compound gave a logD of -0.59. In series [1], this compound gave a Retention_time of 1.89 min.

As for `CCC[C@@H](c1ccc(C(=O)O)c(Oc2cccc(Cl)c2)c1)N1CCC[C@H](n2cc(C)c(=O)[nH]c2=O)C1`, in series [2], the half-maximal inhibitory concentration (IC50) worked out at 18 nM. Further, the minimal inhibitory concentration (MIC) in the series on Staphylococcus aureus [3] and with Staphylococcus aureus [5] was 4 µg/mL throughout.

`CCC[C@H](c1ccc(C(=O)O)c(Oc2cccc(Cl)c2)c1)N1CCC[C@H](n2cc(C)c(=O)[nH]c2=O)C1`: in series [2], the concentration for half-maximal inhibition (IC50) turned out to be 8 nM. The minimum inhibitory concentration (MIC) in the series with Staphylococcus aureus [3] and in the series with Staphylococcus aureus [5] was 1 µg/mL each time.

As for `Cc1cn([C@H]2CCCN(Cc3ccc(C(=O)O)c(Oc4cccc(Cl)c4)c3)C2)c(=O)[nH]c1=O`, the concentration for half-maximal inhibition (IC50) in series [2] was 73 nM. Also, the MIC in the series on Staphylococcus aureus [3] and with Staphylococcus aureus [5] was 32 µg/mL in each case.

With `O=Cc1cccc(Oc2cccc(Cl)c2)c1F`, in series [1], the Retention_time is 2.88 min.

In series [1], `Cc1cn([C@H]2CCCN(C(CC(C)C)c3ccc(C(=O)O)c(Oc4cccc(Cl)c4)c3F)C2)c(=O)[nH]c1=O` (some centres undefined) gave a Retention_time of 1.99 min.

In series [1], `CC(C)CC(O)c1ccc(Br)c(F)c1F` (centres undefined) came in with a Retention_time of 3.24 min.

As for `CC[C@@H](c1ccc(C(=O)O)c(Oc2cccc(Cl)c2)c1F)N1CCC[C@H](n2cc(C)c(=O)[nH]c2=O)C1`, the half-maximal inhibitory concentration (IC50) in series [2] was 3 nM. Further, the MIC with Staphylococcus aureus [3] was 1 µg/mL; in the series on Staphylococcus aureus [5] it was 4 µg/mL. In addition, the logD in series [4] came to 0.11. Also, the Retention_time in series [1] came to 1.72 min. The fraction unbound at 5 h, 10 µM in series [6] came out at 0.011.

In the case of `CCC[C@@H](c1ccc(C(=O)O)c(Oc2cccc(Cl)c2)c1F)N1CCC[C@H](n2cc(C)c(=O)[nH]c2=O)C1`, the IC50 in series [2] stood at 3 nM. In addition, the MIC is 0.5 µg/mL in the series with Staphylococcus aureus [3] and 1 µg/mL in the series with Staphylococcus aureus [5]. The same compound displayed a clearance in series [7] of 18 mL/min/kg. In series [4], this compound gave a logD of 0.51. This compound also registered a Retention_time in series [1] of 1.86 min. The fraction unbound at 5 h, 10 µM in series [8] and in series [6] was 0.007 throughout.

Regarding `COc1c(CN2CCC[C@H](n3cc(C)c(=O)[nH]c3=O)C2)cccc1Oc1cc(F)cc(Cl)c1`, the IC50 in series [2] was 474 nM. Besides, in series [1], the Retention_time is recorded as 3 min.

Consider `CCC(c1ccc(Br)c(Oc2cccc(Cl)c2)c1OC)N1CCC[C@H](n2cc(C)c(=O)[nH]c2=O)C1` (some centres undefined), for which the Retention_time in series [1] was determined as 2.41 min.

On to `Cc1cn([C@H]2CCCN(Cc3cccc(Oc4cc(F)cc(Cl)c4)c3Br)C2)c(=O)[nH]c1=O`, for which the half-inhibitory concentration (IC50) in series [2] amounted to 581 nM. In series [1], the Retention_time came to 2.34 min.

With `CC[C@H](c1ccc(C(=O)O)c(Oc2cccc(Cl)c2)c1OC)N1CCC[C@H](n2cc(C)c(=O)[nH]c2=O)C1`, the half-inhibitory concentration (IC50) in series [2] came out at 69 nM. The MIC in the series on Staphylococcus aureus [3] and with Staphylococcus aureus [5] was more than 16 µg/mL each time. The compound further displayed a clearance in series [7] of 84 mL/min/kg. In series [4], this compound registered a logD of -0.13. In addition, the Retention_time in series [1] is reported as 1.55 min. The fraction unbound at 5 h, 10 µM in series [8] was 0.006; in series [6], 0.015.

In the case of `CCC[C@H](c1ccc(C(=O)O)c(Oc2cccc(Cl)c2)c1F)N1CCC[C@H](n2cc(C)c(=O)[nH]c2=O)C1`, the half-maximal inhibitory concentration (IC50) in series [2] is 6 nM. Moreover, the minimal inhibitory concentration (MIC) was 1 µg/mL with Staphylococcus aureus [3] and 2 µg/mL with Staphylococcus aureus [5]. Further, the clearance in series [7] is 64 mL/min/kg. The log distribution coefficient (logD) in series [4] was found to be 0.53. The compound further showed a Retention_time in series [1] of 1.84 min. For the same compound, in series [6], the fraction unbound at 5 h, 10 µM was less than 0.01.

On to `Cc1cn([C@H]2CCCN(Cc3cccc(Oc4cc(F)cc(Cl)c4)c3)C2)c(=O)[nH]c1=O`, for which the 50% inhibitory concentration (IC50) in series [2] was determined as 2060 nM.

Take `Cc1cn([C@H]2CCCN(Cc3cccc(Oc4cc(F)cc(Cl)c4)c3Cl)C2)c(=O)[nH]c1=O`: the 50% inhibitory concentration (IC50) in series [2] amounted to 779 nM. The same compound gave a Retention_time in series [1] of 2.31 min.

As for `CCCc1c(CN2CCC[C@H](n3cc(C)c(=O)[nH]c3=O)C2)cccc1Oc1cc(F)cc(Cl)c1`, in series [2], the IC50 was determined as 67400 nM. For the same compound, in series [1], the Retention_time is on record as 2.5 min.

Take `CCOc1c(CN2CCC[C@H](n3cc(C)c(=O)[nH]c3=O)C2)cccc1Oc1cc(F)cc(Cl)c1`: in series [2], the IC50 stood at 625 nM. In series [1], this compound had a Retention_time of 2.32 min.

Take `Cc1cn([C@H]2CCCN(Cc3cccc(Oc4cccc(Cl)c4)c3F)C2)c(=O)[nH]c1=O`: the half-maximal inhibitory concentration (IC50) in series [2] amounted to 86 nM. For the same compound, the Retention_time in series [1] turned out to be 2 min.

Consider `Cc1c(CN2CCC[C@H](n3cc(C)c(=O)[nH]c3=O)C2)cccc1Oc1cc(F)cc(Cl)c1`, for which the IC50 in series [2] was found to be 9260 nM. In series [1], this compound returned a Retention_time of 2.3 min.

Consider `CCC[C@@H](c1ccc(C(=O)O)c(Oc2cccc(Cl)c2)c1OC)N1CCC[C@H](n2cc(C)c(=O)[nH]c2=O)C1`, for which the concentration for half-maximal inhibition (IC50) in series [2] was 4 nM. The figures for the minimum inhibitory concentration (MIC) with Staphylococcus aureus [3] and with Staphylococcus aureus [5] were 4 µg/mL and 8 µg/mL, respectively. In series [4], the log distribution coefficient (logD) was determined as 0.13. Further, the free fraction (fraction unbound) at 5 h, 10 µM in series [6] amounted to 0.065.

For `O=Cc1cccc(O)c1F`, the Retention_time in series [1] is 1.23 min.

As for `Cc1cn([C@H]2CCCN(C(CC(C)C)c3ccc(C#N)c(F)c3F)C2)c(=O)[nH]c1=O` (some centres undefined), the Retention_time in series [1] amounted to 1.93 min.

Take `CC[C@H](c1ccc(C(=O)O)c(Oc2cccc(Cl)c2)c1F)N1CCC[C@H](n2cc(C)c(=O)[nH]c2=O)C1`: the IC50 in series [2] amounted to 2 nM. The MIC in the series with Staphylococcus aureus [3] and in the series with Staphylococcus aureus [5] was 2 µg/mL throughout. For the same compound, the clearance in series [7] was 119 mL/min/kg. In series [4], this compound registered a pH-dependent lipophilicity (logD) of 0.12. In series [1], this compound returned a Retention_time of 1.75 min. The compound further yielded a fraction unbound at 5 h, 10 µM in series [6] of less than 0.01.

In turn, `COc1c(C=O)ccc(Br)c1Oc1cccc(Cl)c1` registered a Retention_time in series [1] of 3.28 min.

Regarding `Cc1cn([C@H]2CCCN(C(CC(C)C)c3ccc(C#N)c(Oc4cccc(Cl)c4)c3F)C2)c(=O)[nH]c1=O` (some centres undefined), the Retention_time in series [1] came out at 2.62 min.

For `COc1c(CN2CCC[C@H](n3cc(C)c(=O)[nH]c3=O)C2)ccc(C(=O)O)c1Oc1cccc(Cl)c1`, the IC50 in series [2] amounted to 10 nM. Also, the figures for the minimum inhibitory concentration (MIC) in the series with Staphylococcus aureus [3] and in the series on Staphylococcus aureus [5] were 16 µg/mL and 8 µg/mL, respectively. Moreover, the logD in series [4] is -0.77. The compound further yielded a Retention_time in series [1] of 2.17 min.

Regarding `Cc1cn([C@H]2CCCN(Cc3cccc(Oc4cccc(Cl)c4)c3C#N)C2)c(=O)[nH]c1=O`, in series [2], the 50% inhibitory concentration (IC50) was 1190 nM. Besides, in series [1], the Retention_time stood at 2.16 min.

In series [1], `Cc1cn([C@H]2CCCN(C(CC(C)C)c3ccc(Br)c(F)c3F)C2)c(=O)[nH]c1=O` (some centres undefined) yielded a Retention_time of 3.1 min.

`CC[C@@H](c1ccc(C(=O)O)c(Oc2cccc(Cl)c2)c1)N1CCC[C@H](n2cc(C)c(=O)[nH]c2=O)C1`: the IC50 in series [2] came to 18 nM. The values for the MIC in the series on Staphylococcus aureus [3] and with Staphylococcus aureus [5] were 4 µg/mL and 2 µg/mL, respectively. For the same compound, the log distribution coefficient (logD) in series [4] was 0.22.
